# Reference: patent US20080221074A1, “Drug Screen and Treatment Method” (priority 2006, published 2008)
# Key:
# [1] = system: carrageenan-λ induced pleurisy; experiment: carrageenan-λ induced lung (pleural cavity) inflammation; type: in vivo, CD1 male mice; conditions: oral gavage; 1 mg and 0.1 mg (17α-ethynyl triol), 40 mg/kg (17β-amino compound)
# [2] = system: popliteal lymph node cells; experiment: reporter antigen popliteal lymph node (PLN) assay; type: in vivo, BALB/C mice
# Excerpt: Analysis of immune suppression. Glucocorticoid steroids such as dexamethasone or hydrocortisone are typically immune suppressive and have significant toxicities associated with their use. Immune suppression was examined in a reporter antigen popliteal lymph node assay in mice essentially as previously described (C. Goebel et al., Inflamm. Res., 45(Suppl. 2):S85-S90, 1996; R. Pieters et al., Environmental Health Perspectives 107(Suppl. 5):673-677, 1999). […] In this protocol, the vehicle was 0.1% carboxymethylcellulose, 0.9% saline, 2% tween 80 and 0.05% phenol, which contained 17α-ethynylandrost-5-ene-3β,7β,17β-triol in suspension in drug treated animals. Assessment of activity included (1) measuring suppression of numbers of total lymphocytes, antigen specific IgM, IgG1 and IgG2a antibody secreting cells (ASC) (ELISPOT assay) in popliteal lymph node cells; (2) analysis of cell surface marker (CD4, CD8, CD19, F480, CD80, CD86) expression by flow cytometry of living cells in suspension; and (3) IL-4, TNFα and IFNγ production by lymphocytes in vitro (ELISA).
# Groups (n=5 per group) of specific pathogen free BALB/C mice were used. The Positive control group was treated with vehicle (oral gavage) and 5 μg/day dexamethasone by subcutaneous injection to induce immune suppression. Vehicle control animals (negative control) were treated with vehicle alone (oral gavage). One group of animals was treated with 17α-ethynylandrost-5-ene-3β,7β,17β-triol at 0.1 mg/day by oral gavage. Another group was treated with 1 mg/day of 17α-ethynylandrost-5-ene-3β,7β,17β-triol was administered to the animals oral gavage. The results were analyzed by two-tailed Student's t-test with equal variance. The animals were injected in the right hind footpad with 50 μL of freshly prepared sensitizing dose of TNP-OVA. […] Single cell suspensions were prepared, resuspended in 1 mL PBS-BSA (1%) and counted. Cell numbers, IL-4, IL-5 and IFNγ were measured.
# [3] = system: glucose intolerance in DIO mice; experiment: diet induced obesity (DIO) mouse hyperglycemia treatment; type: in vivo; conditions: 20, 40 or 80 mg/kg twice a day up to 28 days
# Excerpt: Diet induced obesity (DIO) mouse hyperglycemia treatment. The effect of a drug to enhance peripheral sensitivity to insulin can be studied in a mouse model in which a state of insulin resistance is attained by feeding the animals a fat-enriched diet (60% of total caloric intake) for at least 6 weeks. This model has been described, e.g., J. N. Thupari et al., Proc. Natl. Acad. Sci. USA, 99(14):9498-9502, 2002, H. Xu et al., J. Clin. Invest., 112:1821-1830, 2003, H. Takahashi et al., J. Biol. Chem., 278(47):46654-46660, 2003.
# For these studies, animals of approximately […] of age were divided into groups of 10 animals each and then treated with a vehicle control (no drug) or 17α-ethynylandrost-5-ene-3β,7β,17β-triol by oral gavage. The 17α-ethynylandrost-5-ene-3β,7β,17β-triol was administered at 20 mg/kg, 40 mg/kg or 80 mg/kg twice a day for up to 28 days. At day 14 and day 28 during the dosing period an OGTT was performed.
compound,measurement,setting,value
"C#C[C@]1(O)CC[C@H]2[C@@H]3[C@@H](O)C=C4C[C@@H](O)CC[C@]4(C)[C@H]3CC[C@@]21C [17α-ethynylandrost-5-ene-3β,7β,17β-triol]",anti-inflammation activity compared to vehicle controls,[1],statistically significant anti-inflammation activity
same,average number of lymphocytes in PLNs,[2]; 0.1 mg/day oral gavage,11.1×10^6 per lymph node
same,"IFNγ, IL-4 and IL-5 levels compared to vehicle control","[2]; compound 1.0 and 0.1 mg/day, dexamethasone 5 μg/day",increased
same,glucose intolerance (OGTT glycemic excursion) vs vehicle,[3],notably reduced glucose intolerance
